From the supplement of paper PMC9663587

Key:
YKL-5-124 = compound: C=CC(=O)Nc1ccc(C(=O)Nc2[nH]nc3c2CN(C(=O)N[C@H](CN(C)C)c2ccccc2)C3(C)C)cc1 [YKL-5-124]; test: increase in dead-cell fraction, 72 h; higher = more death;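 further: breast cancer cell lines in 384-well plates, stained with Hoechst plus LIVE/DEAD far red dye and imaged, cells above an LDR intensity threshold counted dead, Hoechst-negative corpses included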
BSJ-03-123 = compound: CC(=O)c1c(C)c2cnc(Nc3ccc(N4CCN(CCOCCOCCOCCNC(=O)COc5cccc6c5C(=O)N(C5CCC(=O)NC5=O)C6=O)CC4)cn3)nc2n(C2CCCC2)c1=O [BSJ-03-123]; test: as above
[1] = compound: CC(=O)c1c(C)c2cnc(Nc3ccc(N4CCNCC4)cn3)nc2n(C2CCCC2)c1=O; test: as above
[2] = compound: CCN1CCN(Cc2ccc(Nc3ncc(F)c(-c4cc(F)c5nc(C)n(C(C)C)c5c4)n3)nc2)CC1; test: as above
Neratinib/HKI272 [3] = compound: T1, CCOc1cc2ncc(C#N)c(Nc3ccc(OCc4ccccn4)c(Cl)c3)c2cc1NC(=O)/C=C/CN(C)C [Neratinib/HKI272]; test: as above
[4] = compound: CCc1cnn2c(NCc3ccc[n+]([O-])c3)cc(N3CCCC[C@H]3CCO)nc12; test: as above
LEE011/Ribociclib = compound: CN(C)C(=O)c1cc2cnc(Nc3ccc(N4CCNCC4)cn3)nc2n1C1CCCC1 [LEE011/Ribociclib]; test: as above
THZ531 = compound: CN(C)C/C=C/C(=O)Nc1ccc(C(=O)N2CCC[C@@H](Nc3ncc(Cl)c(-c4c[nH]c5ccccc45)n3)C2)cc1 [THZ531]; test: as above
THZ1 [5] = compound: T2, CN(C)C/C=C/C(=O)Nc1ccc(C(=O)Nc2cccc(Nc3ncc(Cl)c(-c4c[nH]c5ccccc45)n3)c2)cc1 [THZ1]; test: as above
Flavopiridol = compound: CN1CC[C@H](c2c(O)cc(O)c3c(=O)cc(-c4ccccc4Cl)oc23)[C@H](O)C1 [Flavopiridol]; test: as above
Neratinib/HKI272 [6] = compound: T1, Neratinib/HKI272; test: GR value, 72 h; higher = faster growth (1 = untreated, <0 = killing);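 further: breast cancer and non-malignant breast epithelial lines, nine half-log doses, viable cells counted by Hoechst and LIVE/DEAD dye imaging versus time-zero plates and DMSO controls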
THZ1 [7] = compound: T2, THZ1; test: as above

## CAMA1
YKL-5-124; 0.001 µM
  increase in dead-cell fraction: 0.0009
YKL-5-124; 0.003162 µM
  increase in dead-cell fraction: 0.0059
YKL-5-124; 0.01 µM
  increase in dead-cell fraction: 0.0122
YKL-5-124; 0.03162 µM
  increase in dead-cell fraction: 0.0047
YKL-5-124; 0.1 µM
  increase in dead-cell fraction: 0.006
YKL-5-124; 0.3162 µM
  increase in dead-cell fraction: 0.0148
YKL-5-124; 1 µM
  increase in dead-cell fraction: -0.0034
YKL-5-124; 3.162 µM
  increase in dead-cell fraction: 0.01
YKL-5-124; 10 µM
  increase in dead-cell fraction: 0.322
BSJ-03-123; 0.001 µM
  increase in dead-cell fraction: -0.0067
BSJ-03-123; 0.003162 µM
  increase in dead-cell fraction: -0.0023
BSJ-03-123; 0.01 µM
  increase in dead-cell fraction: 0.0007
BSJ-03-123; 0.03162 µM
  increase in dead-cell fraction: -0.0025
BSJ-03-123; 0.1 µM
  increase in dead-cell fraction: 0.0035
BSJ-03-123; 0.3162 µM
  increase in dead-cell fraction: -0.0021
BSJ-03-123; 1 µM
  increase in dead-cell fraction: 0.0045
BSJ-03-123; 3.162 µM
  increase in dead-cell fraction: -0.0077
BSJ-03-123; 10 µM
  increase in dead-cell fraction: 0.0255
[1]; 0.0003162 µM
  increase in dead-cell fraction: -0.0052
[1]; 0.001 µM
  increase in dead-cell fraction: 0.0045
[1]; 0.003162 µM
  increase in dead-cell fraction: -0.006
[1]; 0.01 µM
  increase in dead-cell fraction: -0.0044
[1]; 0.03162 µM
  increase in dead-cell fraction: -0.0065
[1]; 0.1 µM
  increase in dead-cell fraction: -0.0028
[1]; 0.3162 µM
  increase in dead-cell fraction: 0.0013
[1]; 1 µM
  increase in dead-cell fraction: 0
[1]; 3.162 µM
  increase in dead-cell fraction: -0.0024
[2]; 0.001 µM
  increase in dead-cell fraction: -0.0054
[2]; 0.003162 µM
  increase in dead-cell fraction: -0.0135
[2]; 0.01 µM
  increase in dead-cell fraction: -0.0075
[2]; 0.03162 µM
  increase in dead-cell fraction: -0.0084
[2]; 0.1 µM
  increase in dead-cell fraction: 0.0035
[2]; 0.3162 µM
  increase in dead-cell fraction: -0.0078
[2]; 1 µM
  increase in dead-cell fraction: -0.0025
[2]; 3.162 µM
  increase in dead-cell fraction: -0.0084
[2]; 10 µM
  increase in dead-cell fraction: 0.0143
Neratinib/HKI272 [3]; 0.0003162 µM
  increase in dead-cell fraction: 0.0013
Neratinib/HKI272 [3]; 0.001 µM
  increase in dead-cell fraction: 0.0021
Neratinib/HKI272 [3]; 0.003162 µM
  increase in dead-cell fraction: -0.0002
Neratinib/HKI272 [3]; 0.01 µM
  increase in dead-cell fraction: 0.0022
Neratinib/HKI272 [3]; 0.03162 µM
  increase in dead-cell fraction: 0.0081
Neratinib/HKI272 [3]; 0.1 µM
  increase in dead-cell fraction: 0.0011
Neratinib/HKI272 [3]; 0.3162 µM
  increase in dead-cell fraction: 0.0067
Neratinib/HKI272 [3]; 1 µM
  increase in dead-cell fraction: 0.0021
Neratinib/HKI272 [3]; 3.162 µM
  increase in dead-cell fraction: 0.0342
[4]; 0.0001 µM
  increase in dead-cell fraction: -0.0004
[4]; 0.0003162 µM
  increase in dead-cell fraction: -0.0044
[4]; 0.001 µM
  increase in dead-cell fraction: 0.0031
[4]; 0.003162 µM
  increase in dead-cell fraction: 0.0113
[4]; 0.01 µM
  increase in dead-cell fraction: 0.0533
[4]; 0.03162 µM
  increase in dead-cell fraction: 0.153
[4]; 0.1 µM
  increase in dead-cell fraction: 0.46
[4]; 0.3162 µM
  increase in dead-cell fraction: 0.518
[4]; 1 µM
  increase in dead-cell fraction: 0.56
LEE011/Ribociclib; 0.001 µM
  increase in dead-cell fraction: -0.0064
LEE011/Ribociclib; 0.003162 µM
  increase in dead-cell fraction: -0.0056
LEE011/Ribociclib; 0.01 µM
  increase in dead-cell fraction: -0.0011
LEE011/Ribociclib; 0.03162 µM
  increase in dead-cell fraction: -0.0009
LEE011/Ribociclib; 0.1 µM
  increase in dead-cell fraction: 0.006
LEE011/Ribociclib; 0.3162 µM
  increase in dead-cell fraction: 0.0058
LEE011/Ribociclib; 1 µM
  increase in dead-cell fraction: 0.011
LEE011/Ribociclib; 3.162 µM
  increase in dead-cell fraction: 0.0045
LEE011/Ribociclib; 10 µM
  increase in dead-cell fraction: 0.0049
THZ531; 0.0001 µM
  increase in dead-cell fraction: 0.001
THZ531; 0.0003162 µM
  increase in dead-cell fraction: -0.0014
THZ531; 0.001 µM
  increase in dead-cell fraction: -0.0002
THZ531; 0.003162 µM
  increase in dead-cell fraction: -0.005
THZ531; 0.01 µM
  increase in dead-cell fraction: 0.0035
THZ531; 0.03162 µM
  increase in dead-cell fraction: 0.0054
THZ531; 0.1 µM
  increase in dead-cell fraction: 0.0126
THZ531; 0.3162 µM
  increase in dead-cell fraction: 0.0499
THZ531; 1 µM
  increase in dead-cell fraction: 0.189
THZ1 [5]; 0.0001 µM
  increase in dead-cell fraction: -0.0002
THZ1 [5]; 0.0003162 µM
  increase in dead-cell fraction: 0.0023
THZ1 [5]; 0.001 µM
  increase in dead-cell fraction: -0.002
THZ1 [5]; 0.003162 µM
  increase in dead-cell fraction: -0.0017
THZ1 [5]; 0.01 µM
  increase in dead-cell fraction: 0.0023
THZ1 [5]; 0.03162 µM
  increase in dead-cell fraction: 0.0135
THZ1 [5]; 0.1 µM
  increase in dead-cell fraction: 0.0187
THZ1 [5]; 0.3162 µM
  increase in dead-cell fraction: 0.0397
THZ1 [5]; 1 µM
  increase in dead-cell fraction: 0.187
Flavopiridol; 0.0001 µM
  increase in dead-cell fraction: 0.0013
Flavopiridol; 0.0003162 µM
  increase in dead-cell fraction: 0.0009
Flavopiridol; 0.001 µM
  increase in dead-cell fraction: 0.0022
Flavopiridol; 0.003162 µM
  increase in dead-cell fraction: 0.0011
Flavopiridol; 0.01 µM
  increase in dead-cell fraction: 0.0016
Flavopiridol; 0.03162 µM
  increase in dead-cell fraction: 0.0052
Flavopiridol; 0.1 µM
  increase in dead-cell fraction: 0.0067
Flavopiridol; 0.3162 µM
  increase in dead-cell fraction: 0.0207
Flavopiridol; 1 µM
  increase in dead-cell fraction: 0.107
Neratinib/HKI272 [6]; 0.0003162 µM
  GR value: 1.08 GR
Neratinib/HKI272 [6]; 0.001 µM
  GR value: 1.01 GR
Neratinib/HKI272 [6]; 0.003162 µM
  GR value: 1.01 GR
Neratinib/HKI272 [6]; 0.01 µM
  GR value: 0.989 GR
Neratinib/HKI272 [6]; 0.03162 µM
  GR value: 1 GR
Neratinib/HKI272 [6]; 0.1 µM
  GR value: 0.993 GR
Neratinib/HKI272 [6]; 0.3162 µM
  GR value: 0.949 GR
Neratinib/HKI272 [6]; 1 µM
  GR value: 0.837 GR
Neratinib/HKI272 [6]; 3.162 µM
  GR value: 0.455 GR
THZ1 [7]; 0.0001 µM
  GR value: 0.892 GR
THZ1 [7]; 0.0003162 µM
  GR value: 0.979 GR
THZ1 [7]; 0.001 µM
  GR value: 0.758 GR
THZ1 [7]; 0.003162 µM
  GR value: 0.755 GR
THZ1 [7]; 0.01 µM
  GR value: 0.615 GR
THZ1 [7]; 0.03162 µM
  GR value: 0.549 GR
THZ1 [7]; 0.1 µM
  GR value: 0.208 GR
THZ1 [7]; 0.3162 µM
  GR value: -0.0416 GR
THZ1 [7]; 1 µM
  GR value: -0.467 GR
